This note sets out measurements from patent publication US9409884B2 (Rigel Pharmaceuticals, Inc., priority 2012, dated 2016).

pEC50: −log10 of the molar value.

The first assay addresses AMPK. The experiment in a line: AMPK activation, enzyme-linked immunosorbent assay. In kind it is biochemical. As to conditions: Table 10, compounds of Table 3. In short, it runs like this:
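Read-out: ELISA, used to detect compound-driven activation of AMPK.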
The compound `N#Cc1ccc(CN2CCC(NC(=O)c3cnc(OC4CCN(c5ccc(C(F)(F)F)cc5)CC4)s3)CC2)cc1` [Compound 3-23, N-(1-(4-cyanobenzyl)piperidin-4-yl)-2-(1-(4-(trifluoromethyl)phenyl)piperidin-4-yloxy)thiazole-5-carboxamide] showed a pEC50 of more than 7.00. The same measure, in the same setting: to `N#Cc1ccc(CN2CCC(NC(=O)c3cnc(OC4CCN(c5ccc(C#N)cc5)CC4)s3)CC2)cc1` [Compound 3-24, N-(1-(4-cyanobenzyl)piperidin-4-yl)-2-(1-(4-cyanophenyl)piperidin-4-yloxy)thiazole-5-carboxamide] belongs more than 7.00; to `N#Cc1ccc(CN2CCC(NC(=O)c3cnc(OC4CCN(Cc5ccc(C(F)(F)F)cc5)CC4)s3)CC2)cc1` [Compound 3-25, N-(1-(4-cyanobenzyl)piperidin-4-yl)-2-(1-(4-(trifluoromethyl)benzyl)piperidin-4-yloxy)thiazole-5-carboxamide], more than 7.00. The same measure, in the same setting: to `CC(C)(C)OC(=O)N1CCC(Oc2ncc(C(=O)NC3CCN(Cc4ccc(C#N)cc4)CC3)s2)CC1` [Compound 3-26, tert-butyl 4-(5-(1-(4-cyanobenzyl)piperidin-4-ylcarbamoyl)thiazol-2-yloxy)piperidine-1-carboxylate] belongs 5.00 to 6.00; to `N#Cc1ccc(CN2CCC(NC(=O)c3ccc(C(=O)N4CCN(Cc5ccc(Cl)cc5)CC4)cc3)CC2)cc1` [Compound 3-28, 4-(4-(4-chlorobenzyl)piperazine-1-carbonyl)-N-(1-(4-cyanobenzyl)piperidin-4-yl)benzamide], more than 7.00; to `N#Cc1ccc(CN2CCC(NC(=O)c3ccc(C(=O)N4CCN(c5ccc(Cl)cc5)CC4)cc3)CC2)cc1` [Compound 3-29, 4-(4-(4-chlorophenyl)piperazine-1-carbonyl)-N-(1-(4-cyanobenzyl)piperidin-4-yl)benzamide], 4.00 to 5.00. `N#Cc1ccc(CN2CCC(NC(=O)c3ccc(C(=O)N4CCN(c5ccc(C(F)(F)F)cn5)CC4)cc3)CC2)cc1` [Compound 3-30, N-(1-(4-cyanobenzyl)piperidin-4-yl)-4-(4-(5-(trifluoromethyl)pyridin-2-yl)piperazine-1-carbonyl)benzamide] showed a pEC50 of more than 7.00. Still for that read-out and setting: to `N#Cc1ccc(CN2CCC(NC(=O)c3ccc(C(=O)NC4CCN(Cc5ccc(C(F)(F)F)cc5)CC4)cc3)CC2)cc1` [Compound 3-31, N^1-(1-(4-cyanobenzyl)piperidin-4-yl)-N^4-(1-(4-(trifluoromethyl)benzyl)piperidin-4-yl)terephthalamide] belongs more than 7.00. On the same count and under the same terms, next, `N#Cc1ccc(CN2CCC(NC(=O)c3ccc(C(=O)NC4CCN(c5ccccc5)CC4)cc3)CC2)cc1` [Compound 3-32, N^1-(1-(4-cyanobenzyl)piperidin-4-yl)-N^4-(1-phenylpiperidin-4-yl)terephthalamide]: 4.00 to 5.00. Still for that read-out and setting: to `N#Cc1ccc(CN2CCC(NC(=O)c3ccc(C(=O)NC4CCN(Cc5ccccc5)CC4)cc3)CC2)cc1` [Compound 3-33, N^1-(1-benzylpiperidin-4-yl)-N^4-(1-(4-cyanobenzyl)piperidin-4-yl)terephthalamide] belongs 4.00 to 5.00; to `N#Cc1ccc(CN2CCC(NC(=O)c3ccc4c(c3)CN(Cc3ccc(F)cc3)CC4)CC2)cc1` [Compound 3-34, N-(1-(4-cyanobenzyl)piperidin-4-yl)-2-(4-fluorobenzyl)-1,2,3,4-tetrahydroisoquinoline-7-carboxamide], more than 7.00; to `O=C(NC1CCN(Cc2cccnc2)CC1)c1ccc2c(c1)CN(Cc1ccc(F)cc1)CC2` [Compound 3-35, 2-(4-fluorobenzyl)-N-(1-(pyridin-3-ylmethyl)piperidin-4-yl)-1,2,3,4-tetrahydroisoquinoline-7-carboxamide], 5.00 to 6.00. In turn, `O=C(NC1CCN(Cc2ccc(C(F)(F)F)cc2)CC1)c1ccc2c(c1)CN(Cc1ccc(F)cc1)CC2` [Compound 3-36, 2-(4-fluorobenzyl)-N-(1-(4-(trifluoromethyl)benzyl)piperidin-4-yl)-1,2,3,4-tetrahydroisoquinoline-7-carboxamide] gave a pEC50 of 6.00 to 7.00. Still for that read-out and setting: to `N#Cc1ccc(CN2CCC(NC(=O)c3ccc4c(c3)CN(Cc3ccc(C#N)cc3)CC4)CC2)cc1` [Compound 3-37, 2-(4-cyanobenzyl)-N-(1-(4-cyanobenzyl)piperidin-4-yl)-1,2,3,4-tetrahydroisoquinoline-7-carboxamide] belongs more than 7.00; to `N#Cc1ccc(CN2CCc3ccc(C(=O)NC4CCN(Cc5cccnc5)CC4)cc3C2)cc1` [Compound 3-38, 2-(4-cyanobenzyl)-N-(1-(pyridin-3-ylmethyl)piperidin-4-yl)-1,2,3,4-tetrahydroisoquinoline-7-carboxamide], more than 7.00; to `N#Cc1ccc(CN2CCc3ccc(C(=O)NC4CCN(Cc5ccc(C(F)(F)F)cc5)CC4)cc3C2)cc1` [Compound 3-39, 2-(4-cyanobenzyl)-N-(1-(4-(trifluoromethyl)benzyl)piperidin-4-yl)-1,2,3,4-tetrahydroisoquinoline-7-carboxamide], 5.00 to 6.00.

The assay is the same for the next values; noted with them: Table 11, compounds of Table 4.
For the compound `N#Cc1ccc(CN2CCC(NC(=O)c3ccc(C(=O)N4CCN(Cc5ccc(C#N)cc5)CC4)cn3)CC2)cc1` [Compound 4-1, 5-(4-(4-cyanobenzyl)piperazine-1-carbonyl)-N-(1-(4-cyanobenzyl)piperidin-4-yl)picolinamide], the pEC50 is more than 6.30.

The compound `N#Cc1ccc(CN2CCC(NC(=O)c3ccc(C(=O)N4CCN(Cc5ccc(F)cc5)CC4)cn3)CC2)cc1` [Compound 4-2, N-(1-(4-cyanobenzyl)piperidin-4-yl)-5-(4-(4-fluorobenzyl)piperazine-1-carbonyl)picolinamide] gave a pEC50 of more than 6.30.

In the case of `N#Cc1ccc(CN2CCC(NC(=O)c3ccc(C(=O)N4CCN(Cc5ccc(C(F)(F)F)cc5)CC4)cn3)CC2)cc1` [Compound 4-3, N-(1-(4-cyanobenzyl)piperidin-4-yl)-5-(4-(4-(trifluoromethyl)benzyl)piperazine-1-carbonyl)picolinamide], the pEC50 is more than 6.30.

Turning to `O=C(N[C@H]1CCN(Cc2ccc(F)cc2)C1)c1ccc(C(=O)N2CCN(c3ccc(Cl)cc3)CC2)cn1` [Compound 4-4, (S)-5-(4-(4-chlorophenyl)piperazine-1-carbonyl)-N-(1-(4-fluorobenzyl)pyrrolidin-3-yl)picolinamide], the pEC50 is 5.30 to 6.00. `O=C(N[C@H]1CCN(Cc2ccncc2)C1)c1ccc(C(=O)N2CCN(c3ccc(Cl)cc3)CC2)cn1` [Compound 4-5, (S)-5-(4-(4-chlorophenyl)piperazine-1-carbonyl)-N-(1-(pyridin-4-ylmethyl)pyrrolidin-3-yl)picolinamide] gave a pEC50 of 5.30 to 6.00. The same measure, in the same setting: to `N#Cc1ccc(CN2CC[C@H](NC(=O)c3ccc(C(=O)N4CCN(c5ccc(Cl)cc5)CC4)cn3)C2)cc1` [Compound 4-6, (S)-5-(4-(4-chlorophenyl)piperazine-1-carbonyl)-N-(1-(4-cyanobenzyl)pyrrolidin-3-yl)picolinamide] belongs 6.00 to 6.30; to `O=C(NC1CCN(Cc2ccc(Cl)cc2)C1)c1ccc(C(=O)N2CCN(c3ccc(Cl)cc3)CC2)cn1` (stereo not shown) [Compound 4-7, N-(1-(4-chlorobenzyl)pyrrolidin-3-yl)-5-(4-(4-chlorophenyl)piperazine-1-carbonyl)picolinamide], 5.30 to 6.00; to `O=C(NC1CCN(Cc2ccc(C(F)(F)F)cc2)C1)c1ccc(C(=O)N2CCN(c3ccc(Cl)cc3)CC2)cn1` (stereo not shown) [Compound 4-8, 5-(4-(4-chlorophenyl)piperazine-1-carbonyl)-N-(1-(4-(trifluoromethyl)benzyl)pyrrolidin-3-yl)picolinamide], 5.30 to 6.00. The same measure, in the same setting: next, `N#Cc1ccc(CN2CCC(NC(=O)c3ccc(C(=O)N4CCN(c5ccc(S(=O)(=O)N6CCCC6)cc5)CC4)nc3)CC2)cc1` [Compound 4-9, N-(1-(4-cyanobenzyl)piperidin-4-yl)-6-(4-(4-(pyrrolidin-1-ylsulfonyl)phenyl)piperazine-1-carbonyl)nicotinamide]: 6.00 to 6.30. The same measure, in the same setting: to `CC(C)S(=O)(=O)c1ccc(N2CCN(C(=O)c3ccc(C(=O)NC4CCN(Cc5ccc(OC(F)(F)F)cc5)C[C@H]4F)cn3)CC2)cc1` (stereo partly drawn) [Compound 4-11, N-((3,4-trans)-3-fluoro-1-(4-(trifluoromethoxy)benzyl)piperidin-4-yl)-6-(4-(4-(isopropylsulfonyl)phenyl)piperazine-1-carbonyl)nicotinamide] belongs more than 6.30; to `N#Cc1ccc(CN2CCC(NC(=O)c3ccc(C(=O)N4CCN(c5ccc(C(=O)C6CC6)cc5)CC4)nc3)[C@H](F)C2)cc1` (stereo partly drawn) [Compound 4-12, N-((3,4-trans)-1-(4-cyanobenzyl)-3-fluoropiperidin-4-yl)-6-(4-(4-(cyclopropanecarbonyl)phenyl)piperazine-1-carbonyl)nicotinamide], more than 6.30; to `CS(=O)(=O)c1ccc(CN2CCN(C(=O)c3ccc(C(=O)NC4CCN(Cc5ccc(C#N)cc5)CC4F)cn3)CC2)cc1` (stereo not drawn) [Compound 4-13, N-((3,4-trans)-1-(4-cyanobenzyl)-3-fluoropiperidin-4-yl)-6-(4-(4-(methylsulfonyl)benzyl)piperazine-1-carbonyl)nicotinamide], 5.30 to 6.00. Consider `O=C(NC1CCN(Cc2ccc(OC(F)(F)F)cc2)C[C@H]1F)c1ccc(C(=O)N2CCN(c3ccc(S(=O)(=O)N4CCCC4)cc3)CC2)nc1` (stereo partly drawn) [Compound 4-14, N-((3,4-trans)-3-fluoro-1-(4-(trifluoromethoxy)benzyl)piperidin-4-yl)-6-(4-(4-(pyrrolidin-1-ylsulfonyl)phenyl)piperazine-1-carbonyl)nicotinamide], for which the pEC50 is more than 6.30.

Take `O=C(NC1CCN(Cc2ccc(OC(F)(F)F)cc2)C[C@H]1F)c1ccc(C(=O)N2CCN(Cc3ccc(S(=O)(=O)N4CCCC4)cc3)CC2)nc1` (stereo partly drawn) [Compound 4-15, N-((3,4-trans)-3-fluoro-1-(4-(trifluoromethoxy)benzyl)piperidin-4-yl)-6-(4-(4-(pyrrolidin-1-ylsulfonyl)benzyl)piperazine-1-carbonyl)nicotinamide]: the negative logarithm of the EC50 (pEC50) was more than 6.30. The same measure, in the same setting: next, `N#Cc1ccc(CN2CCC(NC(=O)c3ccc(C(=O)N4CCN(Cc5ccc(S(=O)(=O)N6CCCC6)cc5)CC4)nc3)CC2)cc1` [Compound 4-16, N-(1-(4-cyanobenzyl)piperidin-4-yl)-6-(4-(4-(pyrrolidin-1-ylsulfonyl)benzyl)piperazine-1-carbonyl)nicotinamide]: more than 6.30.
